For the assay, the target named is T1, full-length beta-Catenin (Uniprot ID P35222) (Homo sapiens, UniProt P35222).
T1 construct: 10 nM full-length beta-Catenin (Uniprot ID P35222)
T1 sequence (P35222 1-781): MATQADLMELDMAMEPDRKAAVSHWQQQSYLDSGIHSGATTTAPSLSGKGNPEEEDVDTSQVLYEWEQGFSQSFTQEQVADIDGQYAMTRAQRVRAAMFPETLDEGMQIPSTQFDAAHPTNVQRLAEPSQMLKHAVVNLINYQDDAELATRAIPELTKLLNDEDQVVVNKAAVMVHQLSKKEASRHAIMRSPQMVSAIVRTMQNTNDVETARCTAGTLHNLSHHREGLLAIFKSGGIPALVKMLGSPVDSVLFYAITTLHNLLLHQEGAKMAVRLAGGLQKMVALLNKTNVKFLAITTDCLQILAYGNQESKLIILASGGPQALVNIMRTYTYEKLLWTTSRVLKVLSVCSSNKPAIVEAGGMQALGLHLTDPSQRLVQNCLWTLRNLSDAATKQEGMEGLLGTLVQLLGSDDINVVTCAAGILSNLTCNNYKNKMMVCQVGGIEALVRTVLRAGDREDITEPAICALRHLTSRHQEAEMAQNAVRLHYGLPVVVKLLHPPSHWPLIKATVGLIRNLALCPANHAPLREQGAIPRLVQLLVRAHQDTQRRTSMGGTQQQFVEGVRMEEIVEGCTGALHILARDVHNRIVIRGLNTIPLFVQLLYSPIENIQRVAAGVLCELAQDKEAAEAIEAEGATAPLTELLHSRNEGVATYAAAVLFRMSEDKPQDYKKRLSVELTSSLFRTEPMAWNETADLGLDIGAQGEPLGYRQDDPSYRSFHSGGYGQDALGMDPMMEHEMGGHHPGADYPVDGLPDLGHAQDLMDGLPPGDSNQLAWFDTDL
Nature of the assay: Fluorescence polarization IC50 (beta-catenin / 5FAM-TCF4 10-53 competition). It counts as binding. As to conditions: fluorescence polarization; read-out: beta-Catenin FP IC50.

A word on the IC50: it is the point on the concentration scale where inhibition reaches its midpoint.

Molecules are shown by their SMILES. Starred links: 1 amine or outer side, 2 acyl side, 3 side chain; linkers in the order of their positions; H or OH if unused. Positions of bridges follow the written chain, without caps; N, C: chain ends. Non-standard residues stand in square brackets, D forms with d. Residues, ends and D or L forms follow the SMILES beside them. X3 = O=C([C@]1(CC=[*:3])CCCN1[*:1])[*:2]; Bta = N[C@@H](Cc1csc2ccccc12)C(=O)O; tBuAla = CC(C)(C)C[C@H](N)C(=O)O; 3Thi = N[C@@H](Cc1ccsc1)C(=O)O; R5 = C=CCCC[C@@](C)(N)C(=O)O; S5 = C=CCCC[C@](C)(N)C(=O)O; Aib = CC(C)(N)C(=O)O

For the compound `CC(=O)N1CCC[C@]12CCCCCCC1(CCCCCCCCOC(=O)N3CC[C@@](C(=O)N[C@@H](Cc4ccsc4)C(=O)N[C@@H](Cc4csc5ccccc45)C(=O)N[C@H](C(N)=O)C(C)C)(C3)NC(=O)[C@H](CC(C)C)NC(=O)[C@H](Cc3ccccc3)NC(=O)[C@H](C)NC(=O)[C@H](C)NC(=O)[C@H](CN(CC(=O)O)CC(F)(F)F)NC(=O)[C@H](CC(=O)O)NC1=O)NC(=O)[C@H](CC(C)(C)C)NC(=O)[C@H](CC(=O)O)NC2=O` (stereo partly drawn) [I-1757, Ac-PL3-Asp-Npg-B5-Asp-TfeGA-Ala-Ala-Phe-Leu-PyrS2-3Thi-BztA-Val-NH2], the IC50 stood at 449 nM. Then `CC(=O)N1CCC[C@]12CCCCCCC1(CCCCCCCCOC(=O)N3CC[C@@](C(=O)N[C@@H](Cc4ccsc4)C(=O)N[C@@H](Cc4csc5ccccc45)C(=O)N[C@H](C(N)=O)C(C)C)(C3)NC(=O)[C@H]([C@@H](C)O)NC(=O)[C@H](Cc3ccccc3)NC(=O)[C@H](C)NC(=O)[C@H](C)NC(=O)[C@H](CN(CC(=O)O)CC(F)(F)F)NC(=O)[C@H](CC(=O)O)NC1=O)NC(=O)[C@H](CC(C)(C)C)NC(=O)[C@H](CC(=O)O)NC2=O` (stereo partly drawn) [I-1758, Ac-PL3-Asp-Npg-B5-Asp-TfeGA-Ala-Ala-Phe-Thr-PyrS2-3Thi-BztA-Val-NH2], with 235 nM.

Turning to `CC(=O)N1CCC[C@]12CCCCCCC1(CCCCCCCCOC(=O)N3CC[C@@](C(=O)N[C@@H](Cc4ccsc4)C(=O)N[C@@H](Cc4csc5ccccc45)C(=O)N[C@@H](CC(C)C)C(N)=O)(C3)NC(=O)[C@H](CC(C)C)NC(=O)[C@H](Cc3ccccc3)NC(=O)[C@H](C)NC(=O)[C@H](CCCCNC(C)C)NC(=O)[C@H](CN(CC(=O)O)CC(F)(F)F)NC(=O)[C@H](CC(=O)O)NC1=O)NC(=O)[C@H](CC(C)(C)C)NC(=O)[C@H](CC(=O)O)NC2=O` (stereo partly drawn) [I-1765, Ac-PL3-Asp-Npg-B5-Asp-TfeGA-iPrLys-Ala-Phe-Leu-PyrS2-3Thi-BztA-Leu-NH2], the IC50 was found to be 667 nM. Then `CC(=O)N1CCC[C@]12CCCCCCC1(CCCCCCCCOC(=O)N3CC[C@@](C(=O)N[C@@H](Cc4ccsc4)C(=O)N[C@@H](Cc4csc5ccccc45)C(=O)N[C@@H](CC(C)C)C(N)=O)(C3)NC(=O)[C@H]([C@@H](C)O)NC(=O)[C@H](Cc3ccccc3)NC(=O)[C@H](C)NC(=O)[C@H](CCCCNC(C)C)NC(=O)[C@H](CN(CC(=O)O)CC(F)(F)F)NC(=O)[C@H](CC(=O)O)NC1=O)NC(=O)[C@H](CC(C)(C)C)NC(=O)[C@H](CC(=O)O)NC2=O` (stereo partly drawn) [I-1766, Ac-PL3-Asp-Npg-B5-Asp-TfeGA-iPrLys-Ala-Phe-Thr-PyrS2-3Thi-BztA-Leu-NH2], with 267 nM. For `CC(=O)N1CCC[C@]12CCCCCCC1(CCCCCCCCOC(=O)N3CC[C@@](C(=O)N[C@@H](Cc4ccsc4)C(=O)N[C@@H](Cc4csc5ccccc45)C(=O)N[C@@H](Cc4ccccc4)C(N)=O)(C3)NC(=O)[C@H](CC(C)C)NC(=O)[C@H](Cc3ccccc3)NC(=O)[C@H](C)NC(=O)[C@H](CCCCNC(C)C)NC(=O)[C@H](CN(CC(=O)O)CC(F)(F)F)NC(=O)[C@H](CC(=O)O)NC1=O)NC(=O)[C@H](CC(C)(C)C)NC(=O)[C@H](CC(=O)O)NC2=O` (stereo partly drawn) [I-1767, Ac-PL3-Asp-Npg-B5-Asp-TfeGA-iPrLys-Ala-Phe-Leu-PyrS2-3Thi-BztA-Phe-NH2], the IC50 was determined as 327 nM.

As to `CC(=O)N1CCC[C@]12CCCCCCC1(CCCCCCCCOC(=O)N3CC[C@@](C(=O)N[C@@H](Cc4ccsc4)C(=O)N[C@@H](Cc4csc5ccccc45)C(=O)N[C@H](C(N)=O)C(C)C)(C3)NC(=O)[C@H](CC(C)C)NC(=O)[C@H](Cc3ccccc3)NC(=O)[C@H](C)NC(=O)[C@H](CCCCNC(C)C)NC(=O)[C@H](CN(CC(=O)O)CC(F)(F)F)NC(=O)[C@H](CC(=O)O)NC1=O)NC(=O)[C@H](CC(C)(C)C)NC(=O)[C@H](CC(=O)O)NC2=O` (stereo partly drawn) [I-1769, Ac-PL3-Asp-Npg-B5-Asp-TfeGA-iPrLys-Ala-Phe-Leu-PyrS2-3Thi-BztA-Val-NH2], the IC50 worked out at 419 nM. Then `CC(=O)N1CCC[C@]12CC=CCCCC1(CCCC=CCCCOC(=O)N3CC[C@@](C(=O)N[C@@H](Cc4ccsc4)C(=O)N[C@@H](Cc4csc5ccccc45)C(=O)N[C@@H](CCC(N)=O)C(N)=O)(C3)NC(=O)[C@H](CC(C)C)NC(=O)[C@H](Cc3ccccc3)NC(=O)[C@H](C)NC(=O)[C@H](C)NC(=O)[C@H](CN(CC(=O)O)CC(F)(F)F)NC(=O)[C@H](C(C)(C)C(=O)O)NC1=O)NC(=O)[C@H](CC(C)(C)C)NC(=O)[C@H](CC(=O)O)NC2=O` (stereo partly drawn) [I-1771, Ac-PL3-Asp-Npg-B5-bMe2Asp-TfeGA-Ala-Ala-Phe-Leu-PyrS2-3Thi-BztA-Gln-NH2], with 209 nM. Then `CC(=O)N1CCC[C@]12CC=CCCCC1(CCCC=CCCCOC(=O)N3CC[C@@](C(=O)N[C@@H](Cc4ccsc4)C(=O)N[C@@H](Cc4csc5ccccc45)C(=O)N[C@@H](CCC(N)=O)C(N)=O)(C3)NC(=O)[C@H](CC(C)C)NC(=O)[C@H](Cc3ccccc3)NC(=O)[C@H](C)NC(=O)[C@H](C)NC(=O)[C@H](CN(CC(=O)O)CC(F)(F)F)NC(=O)[C@H](CC(=O)O)NC1=O)NC(=O)[C@H](CC1CCCCC1)NC(=O)[C@H](CC(=O)O)NC2=O` (stereo partly drawn) [I-1775, Ac-PL3-Asp-Cha-B5-Asp-TfeGA-Ala-Ala-Phe-Leu-PyrS2-3Thi-BztA-Gln-NH2], with 15 nM; and `CC(=O)N1CCC[C@]12CC=CCCC[C@@](C)(C(=O)N[C@@H](CC(=O)O)C(=O)N[C@@H](CC(=O)O)C(=O)N[C@@H](C)C(=O)N[C@@H](C)C(=O)N[C@@H](Cc1ccccc1)C(=O)N[C@]1(C)CCCC=CCCC[C@@](C)(C(=O)N[C@@H](C)C(N)=O)NC(=O)[C@H](Cc3csc4ccccc34)NC(=O)[C@H](Cc3ccsc3)NC(=O)[C@H](C)NC1=O)NC(=O)[C@H](CC(C)(C)C)NC(=O)[C@H](CC(=O)O)NC2=O` [I-1778, Ac-PL3-Asp-Npg-S5-Asp-Asp-Ala-Ala-Phe-R5-Ala-3Thi-BztA-S5-Ala-NH2] (Ac-[X3]D[tBuAla][S5]DDAAF[R5]A[3Thi][Bta][S5]A-NH2; staple 1-4, 10-14 (inferred)), with 2080 nM; and `CC(=O)N1CCC[C@]12CC=CCCC[C@@](C)(C(=O)N[C@@H](CC(=O)O)C(=O)N[C@@H](CC(=O)O)C(=O)NC(C)(C)C(=O)N[C@@H](C)C(=O)N[C@@H](Cc1ccccc1)C(=O)N[C@]1(C)CCCC=CCCC[C@@](C)(C(=O)N[C@@H](C)C(N)=O)NC(=O)[C@H](Cc3csc4ccccc34)NC(=O)[C@H](Cc3ccsc3)NC(=O)[C@H](C)NC1=O)NC(=O)[C@H](CC(C)(C)C)NC(=O)[C@H](CC(=O)O)NC2=O` [I-1780, Ac-PL3-Asp-Npg-S5-Asp-Asp-Aib-Ala-Phe-R5-Ala-3Thi-BztA-S5-Ala-NH2] (Ac-[X3]D[tBuAla][S5]DD[Aib]AF[R5]A[3Thi][Bta][S5]A-NH2; staple 1-4, 10-14 (inferred)), with 4190 nM. Then `CC(=O)N1CCC[C@]12CC=CCCC[C@@](C)(C(=O)N[C@@H](CC(=O)O)C(=O)N[C@@H](CC(=O)O)C(=O)NC(C)(C)C(=O)N[C@@H](C)C(=O)N[C@@H](Cc1ccccc1)C(=O)N[C@]1(C)CCCC=CCCC[C@@](C)(C(=O)N[C@@H](C)C(N)=O)NC(=O)[C@H](Cc3csc4ccccc34)NC(=O)[C@H](Cc3ccsc3)NC(=O)[C@H](C)NC1=O)NC(=O)[C@H](CC(C)(C)C)NC(=O)[C@H](CC(=O)O)NC2=O` [I-1781, Ac-PL3-Asp-Npg-S5-Asp-Asp-Aib-Ala-Phe-R5-Ala-3Thi-BztA-S5-Ala-NH2] (Ac-[X3]D[tBuAla][S5]DD[Aib]AF[R5]A[3Thi][Bta][S5]A-NH2; staple 1-4, 10-14 (inferred)), with 8450 nM.

(Values after patent US20240116985A1, “STAPLED PEPTIDES AND METHODS THEREOF” (priority 2020, published 2024).)
